Common to all, as to assay type: cell-based
Test [1] concerns the target T1, AmelOR109 (Apis mellifera, UniProt A0A7M6UWX9).
T1 construct: gene Or109; full-length ORF, codon-optimized, pUAST.attB at 86F8; expressed in ab3A OSNs of D. melanogaster lacking OR22a/OR22b (empty neuron); endogenous Drosophila Orco as co-receptor; with Odorant receptor coreceptor
T1 sequence (A0A7M6UWX9 1-390): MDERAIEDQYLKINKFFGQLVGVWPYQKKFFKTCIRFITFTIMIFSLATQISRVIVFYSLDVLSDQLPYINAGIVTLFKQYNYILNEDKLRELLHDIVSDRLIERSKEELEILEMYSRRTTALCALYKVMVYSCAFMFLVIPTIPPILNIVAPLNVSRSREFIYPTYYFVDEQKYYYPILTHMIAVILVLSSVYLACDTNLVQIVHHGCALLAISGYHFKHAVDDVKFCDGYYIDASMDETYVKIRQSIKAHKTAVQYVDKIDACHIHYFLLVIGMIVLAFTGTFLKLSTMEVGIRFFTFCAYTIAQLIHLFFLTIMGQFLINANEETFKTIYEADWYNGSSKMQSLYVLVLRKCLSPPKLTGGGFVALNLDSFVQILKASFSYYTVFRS
T1 sequence (Q9VNB5 1-486 partner): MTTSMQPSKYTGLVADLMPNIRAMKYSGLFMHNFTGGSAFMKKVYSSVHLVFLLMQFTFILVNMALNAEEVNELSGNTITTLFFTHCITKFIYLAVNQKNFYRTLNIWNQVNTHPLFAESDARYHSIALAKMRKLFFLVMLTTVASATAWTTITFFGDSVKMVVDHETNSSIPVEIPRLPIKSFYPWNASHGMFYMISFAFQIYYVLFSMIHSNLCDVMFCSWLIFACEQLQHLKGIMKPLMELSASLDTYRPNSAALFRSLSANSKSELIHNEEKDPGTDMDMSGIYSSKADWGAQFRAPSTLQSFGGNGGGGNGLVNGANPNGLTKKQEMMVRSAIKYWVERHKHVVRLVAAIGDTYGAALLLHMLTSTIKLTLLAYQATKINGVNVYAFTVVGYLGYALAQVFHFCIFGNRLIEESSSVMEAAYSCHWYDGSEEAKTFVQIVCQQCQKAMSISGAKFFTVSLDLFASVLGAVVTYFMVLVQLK
The test can be described thus: single sensillum recording, ab3A OSN. Particulars: agonist; 1000 µg on filter paper; vs mineral oil.

Test [2] concerns the target T1, AmelOR109. Description: single sensillum recording, ab3A OSN, dose-response. Particulars: agonist; estimated airborne amount in stimulus, not a concentration; vs mineral oil; full curve only in Figure 5B.
Test [3] has as its target T1, AmelOR109. Description: transcuticular calcium imaging (GCaMP6s), ab3A OSN. Particulars: agonist; 1000 µg on filter paper; vs mineral oil.

Marks after values point to notes of the source that are not given here.

We go through six compounds from article PMC12848076, “Identification of two odorant receptors tuned to alarm pheromone compounds in the honey bee Apis mellifera” (Communications Biology, 2025).

As to `CCC(C)=O` [2-butanone], the spikes per second result at AmelOR109 [1] is recorded as “AmelOR109 was activated by multiple compounds in the panel, including 2-butanone”.

`CC(=O)OCc1ccccc1` [benzyl acetate]: the “dose of statistical significance” value on AmelOR109 [2] is 390 pmol.

As for `CCCC(=O)OCC` [ethyl butyrate], the “dose of statistical significance” value at AmelOR109 [2] was 47000 pmol.

For the compound `CC(C)=CCC/C(C)=C/C(=O)O` [geranic acid], the ΔF/F0 entry at AmelOR109 [3] is listed as “two compounds from the aggregation pheromone were strongly active: geranic acid”.

With `CC(=O)OCCC(C)C` [isopentyl acetate], the “dose of statistical significance” value at AmelOR109 [2] is 2700 pmol.

With `CCCCCCCCOC(C)=O` [octyl acetate], the “dose of statistical significance” value at AmelOR109 [2] was 15000 pmol.
